For twelve molecules, IC50 results are on record in PubChem BioAssay AID1053130 (The Scripps Research Institute Molecular Screening Center, 2014).

The structures appear in SMILES notation. The source made the active and inactive calls. The rule behind the calls is not given here.

This assay has as its system Jurkat cell viability, ATP luminescence. As to the kind of experiment: Jurkat T cell cytotoxicity, late-stage follow-up, cytotoxicity control for T. brucei MetRS inhibitor project, luminescence, round 3 (AID 1053130).
In general, IC50 refers to the concentration needed to halve the response being measured. With `CCN(CC)C(=O)C(=O)c1cn(CC(=O)Nc2cc(Oc3ccccc3OC)cc(C(F)(F)F)c2)c2ccccc12`, the IC50 was > 83.3 µM (inactive). The same measure for `CCN(CC)C(=O)C(=O)c1cn(CC(=O)Nc2cc(Oc3ccccc3)cc(C(F)(F)F)c2)c2ccccc12`: 21 µM (inactive). Under `CCN(CC)C(=O)C(=O)c1cn(CC(=O)Nc2cc(Oc3ccccc3F)cc(C(F)(F)F)c2)c2ccccc12` stands > 83.3 µM (inactive); under `Nc1c(Cl)ncnc1Nc1ccc(C(=O)O)cc1`, > 83.3 µM (inactive). Under `CCN(CC)C(=O)C(=O)c1cn(CC(=O)Nc2cc(Oc3ccc(OC)cc3)cc(C(F)(F)F)c2)c2ccccc12` stands 11.3 µM (inactive); under `CCN(CC)C(=O)Cc1cn(CC(=O)Nc2cccc(C(F)(F)F)c2)c2ccccc12`, > 83.3 µM (inactive). Regarding `O=C(Cn1cc(C(=O)C(=O)NCc2ccccc2)c2ccccc21)Nc1cc(Oc2ccccc2)cc(C(F)(F)F)c1`, the IC50 was 63.9 µM (inactive).

As for `CCN(CC)C(=O)C(=O)c1cn(CCNc2cccc(C(F)(F)F)c2)c2ccccc12`, the IC50 is 41.1 µM (inactive). Take `CCN(CC)C(=O)C(=O)c1cn(CC(=O)Nc2cccc(C(F)(F)F)c2)c2ccccc12`: the IC50 was 57.2 µM (inactive). The same measure for `CCN(CC)C(=O)C(=O)c1cn(CCNc2cc(Oc3ccccc3)cc(C(F)(F)F)c2)c2ccccc12`: 34.8 µM (inactive); for `CCN(CC)C(=O)C(=O)c1cn(CC(=O)Nc2cc(Oc3ccc(F)cc3)cc(C(F)(F)F)c2)c2ccccc12`: 50.1 µM (inactive). Under `O=C(Cc1ccc(Nc2nc3ccc(Br)cc3[nH]2)cc1)NCCc1cccs1` stands > 27.8 µM (inactive).
